Patent US20070043008A1, “Condensed Bicyclo[3.1.0] Hex-4-EN Derivatives Useful as Antibacterial Agents” (priority 2003, published 2007)
Converted amounts (≈) assume the structure as drawn. Where two headings read alike, the source gives them in different places.

Legend:
Type in all cases: cell-based
Acinetobacter spp. = assay: MIC/MBC broth dilution, Acinetobacter spp. patient isolates
Description: (§1) The Minimal inhibitory concentration (MIC) and the Minimal bactericidal concentration (MBC) have been tested against various bacteria including patient isolates and antibiotic resistant strains such as S. aureus ATCC 25923, E. coli ATCC 25922, P. aeruginosa ATCC 27853.
(§2) The bacteria were streaked on a nutrient agar plate to obtain a freshly isolated colony subsequently incubated overnight at 37° C. 4-5 isolated colonies were added into Mueller Hinton broth (MHB) solution, incubated for 4 hrs at 37° C. The turbidity was adjusted to the McFarland tube and the solution was diluted with MHB to 1:200.
(§3) The test solution was diluted with dimethyl sulfoxide (DMSO) and MHB in the ratio of 1:4 to get a final concentration of 512 μg/ml. 50 μl of MHB were added to each of twelve wells except the first well. Dilutions were made, mixed and the solutions were then incubated overnight at 37° C.
(§4) In order to determine the MBC, a loopful of each clear well was streaked onto a nutrient containing agar plate, which was subsequently incubated overnight at 37° C. The MBC was then determined as the lowest concentration which has shown no visible colony for each chemical.

Escherichia coli = assay: MIC/MBC broth dilution, Escherichia coli patient isolates
Description: as §1, §2, §3, §4

Enterobacter spp. = assay: MIC/MBC broth dilution, Enterobacter spp. patient isolates
Description: as §1, §2, §3, §4

Klebsiella pneumoniae = assay: MIC/MBC broth dilution, Klebsiella pneumoniae patient isolates
Description: as §1, §2, §3, §4

Pseudomonas aeruginosa = assay: MIC/MBC broth dilution, Pseudomonas aeruginosa patient isolates
Description: as §1, §2, §3, §4

Staphylococcus aureus = assay: MIC/MBC broth dilution, Staphylococcus aureus patient isolates
Description: as §1, §2, §3, §4

E. coli ATCC 25922 = assay: MIC/MBC broth dilution, E. coli ATCC 25922; conditions: Escherichia coli, ATCC25922; E. coli ATCC 25922, resistant strain (footnote 3)
Description: as §1, §2, §3, §4

P. aeruginosa ATCC 27853 = assay: MIC/MBC broth dilution, P. aeruginosa ATCC 27853; conditions: Pseudomonas aeruginosa, ATCC27853; P. aeruginosa ATCC 27853, resistant strain (footnote 3)
Description: as §1, §2, §3, §4

S. aureus ATCC 25923 = assay: MIC/MBC broth dilution, S. aureus ATCC 25923; conditions: Staphylococcus aureus, ATCC25923; S. aureus ATCC 25923, resistant strain (footnote 3)
Description: as §1, §2, §3, §4

[1] = test system: various bacteria including patient isolates and antibiotic resistant strains; assay: Antibacterial evaluation across all bacteria tested (summary of MIC/MBC)
Description: as §1, §2
The test solution was diluted with dimethyl sulfoxide (DMSO) and MHB in the ratio of 1:4 to get a final concentration of 512 μg/ml. 50 μl of MHB were added to each of twelve wells except the first well. […]
as §4
The first step in the evaluation was to determine the zone of inhibition on agar plates comparing the Example compounds with ampicillin and chloramphenicol as standards. Following this initial screening, the MIC/MBC was determined as previously described and the results are outlined in Table 1 for selected examples.

[2] = Enterobacter, patient isolate En1
[3] = Acinetobacter, patient isolates, isolate code not given (one value per isolate), read-out: MIC
[4] = patient isolates, isolate code not given (one value per isolate)
[5] = Enterobacter, patient isolates, isolate code not given (one value per isolate)

CN1C2=C(Cl)C(=O)OC21 (stereo not drawn) [Example 1, 4-chloro-6-methyl-2-oxa-6-azabicyclo[3.1.0]hex-4-en-3-one]
MBC (Acinetobacter spp.; Acinetobacter, patient isolate A1, read-out: MBC): 16 µg/mL (≈ 110 µM)
MIC (Acinetobacter spp.; Acinetobacter, patient isolate A1, read-out: MIC): 8 µg/mL (≈ 55 µM)
MBC (Acinetobacter spp.; Acinetobacter, patient isolate A2, read-out: MBC): 64 µg/mL (≈ 440 µM)
MIC (Acinetobacter spp.; Acinetobacter, patient isolate A2, read-out: MIC): 64 µg/mL (≈ 440 µM)
MBC (Acinetobacter spp.; Acinetobacter, patient isolate A3, read-out: MBC): 32 µg/mL (≈ 220 µM)
MIC (Acinetobacter spp.; Acinetobacter, patient isolate A3, read-out: MIC): 16 µg/mL (≈ 110 µM)
MBC (Acinetobacter spp.; Acinetobacter, patient isolate A4, read-out: MBC): 64 µg/mL (≈ 440 µM)
MIC (Acinetobacter spp.; Acinetobacter, patient isolate A4, read-out: MIC): 64 µg/mL (≈ 440 µM)
MBC (Acinetobacter spp.; Acinetobacter, patient isolate A5, read-out: MBC): 32 µg/mL (≈ 220 µM)
MIC (Acinetobacter spp.; Acinetobacter, patient isolate A5, read-out: MIC): 32 µg/mL (≈ 220 µM)
MBC (Escherichia coli; patient isolate E1): 32 µg/mL (≈ 220 µM)
MIC (Escherichia coli; patient isolate E1): 32 µg/mL (≈ 220 µM)
MBC (Escherichia coli; patient isolate E2): 64 µg/mL (≈ 440 µM)
MIC (Escherichia coli; patient isolate E2): 64 µg/mL (≈ 440 µM)
MBC (Escherichia coli; patient isolate E3): 64 µg/mL (≈ 440 µM)
MIC (Escherichia coli; patient isolate E3): 64 µg/mL (≈ 440 µM)
MBC (Escherichia coli; patient isolate E4): 64 µg/mL (≈ 440 µM)
MIC (Escherichia coli; patient isolate E4): 32 µg/mL (≈ 220 µM)
MBC (Escherichia coli; patient isolate E5): 64 µg/mL (≈ 440 µM)
MIC (Escherichia coli; patient isolate E5): 64 µg/mL (≈ 440 µM)
MBC (Enterobacter spp.; [2]): 64 µg/mL (≈ 440 µM)
MIC (Enterobacter spp.; [2]): 32 µg/mL (≈ 220 µM)
MBC (Enterobacter spp.; Enterobacter, patient isolate En3, read-out: MBC): 32 µg/mL (≈ 220 µM)
MIC (Enterobacter spp.; Enterobacter, patient isolate En3, read-out: MIC): 32 µg/mL (≈ 220 µM)
MBC (Enterobacter spp.; Enterobacter, patient isolate En4, read-out: MBC): 128 µg/mL (≈ 879 µM)
MIC (Enterobacter spp.; Enterobacter, patient isolate En4, read-out: MIC): 64 µg/mL (≈ 440 µM)
MBC (Enterobacter spp.; Enterobacter, patient isolate En5, read-out: MBC): 64 µg/mL (≈ 440 µM)
MIC (Enterobacter spp.; Enterobacter, patient isolate En5, read-out: MIC): 64 µg/mL (≈ 440 µM)
MBC (Klebsiella pneumoniae; patient isolate K1): 64 µg/mL (≈ 440 µM)
MIC (Klebsiella pneumoniae; patient isolate K1): 64 µg/mL (≈ 440 µM)
MBC (Klebsiella pneumoniae; patient isolate K2): 64 µg/mL (≈ 440 µM)
MIC (Klebsiella pneumoniae; patient isolate K2): 32 µg/mL (≈ 220 µM)
MBC (Klebsiella pneumoniae; patient isolate K3): 32 µg/mL (≈ 220 µM)
MIC (Klebsiella pneumoniae; patient isolate K3): 32 µg/mL (≈ 220 µM)
MBC (Klebsiella pneumoniae; patient isolate K4): 128 µg/mL (≈ 879 µM)
MIC (Klebsiella pneumoniae; patient isolate K4): 128 µg/mL (≈ 879 µM)
MBC (Klebsiella pneumoniae; patient isolate K5): 64 µg/mL (≈ 440 µM)
MIC (Klebsiella pneumoniae; patient isolate K5): 64 µg/mL (≈ 440 µM)
MBC (Pseudomonas aeruginosa; patient isolate P7): 64 µg/mL (≈ 440 µM)
MIC (Pseudomonas aeruginosa; patient isolate P7): 32 µg/mL (≈ 220 µM)
MBC (Pseudomonas aeruginosa; patient isolate P10): 64 µg/mL (≈ 440 µM)
MIC (Pseudomonas aeruginosa; patient isolate P10): 64 µg/mL (≈ 440 µM)
MBC (Pseudomonas aeruginosa; patient isolate P12): 128 µg/mL (≈ 879 µM)
MIC (Pseudomonas aeruginosa; patient isolate P12): 128 µg/mL (≈ 879 µM)
MBC (Pseudomonas aeruginosa; patient isolate P13): 64 µg/mL (≈ 440 µM)
MIC (Pseudomonas aeruginosa; patient isolate P13): 32 µg/mL (≈ 220 µM)
MBC (Pseudomonas aeruginosa; patient isolate P14): 64 µg/mL (≈ 440 µM)
MIC (Pseudomonas aeruginosa; patient isolate P14): 32 µg/mL (≈ 220 µM)
MBC (Pseudomonas aeruginosa; patient isolate P16): 64 µg/mL (≈ 440 µM)
MIC (Pseudomonas aeruginosa; patient isolate P16): 32 µg/mL (≈ 220 µM)
MBC (Staphylococcus aureus; patient isolate S1): > 128 µg/mL
MIC (Staphylococcus aureus; patient isolate S1): 128 µg/mL (≈ 879 µM)
MBC (Staphylococcus aureus; patient isolate S2): > 128 µg/mL
MIC (Staphylococcus aureus; patient isolate S2): 128 µg/mL (≈ 879 µM)
MBC (Staphylococcus aureus; patient isolate S3): 128 µg/mL (≈ 879 µM)
MIC (Staphylococcus aureus; patient isolate S3): 64 µg/mL (≈ 440 µM)
MBC (Staphylococcus aureus; patient isolate S4): > 128 µg/mL
MIC (Staphylococcus aureus; patient isolate S4): 64 µg/mL (≈ 440 µM)
MBC (E. coli ATCC 25922): 32 µg/mL (≈ 220 µM)
MIC (E. coli ATCC 25922): 16 µg/mL (≈ 110 µM)
MBC (P. aeruginosa ATCC 27853): 32 µg/mL (≈ 220 µM)
MIC (P. aeruginosa ATCC 27853): 32 µg/mL (≈ 220 µM)
MBC (S. aureus ATCC 25923): 64 µg/mL (≈ 440 µM)
MIC (S. aureus ATCC 25923): 16 µg/mL (≈ 110 µM)
MIC for antibiotic resistant strains compared with corresponding non-resistant isolates ([1]; resistant ATCC strains vs patient isolates): lower MIC for the antibiotic resistant strains than the corresponding non-resistant isolates

O=C1OC2NC2=C1Cl (stereo not drawn) [Example 3, 4-chloro-2-oxa-6-azabicyclo[3.1.0]hex-4-en-3-one]
MIC (Acinetobacter spp.; [3]): 32 µg/mL (≈ 243 µM)
MBC (Escherichia coli; [4]): 128 µg/mL (≈ 973 µM)
MIC (Escherichia coli; [4]): 64 µg/mL (≈ 487 µM)
MBC (Enterobacter spp.; [5]): 64 µg/mL (≈ 487 µM)
MIC (Enterobacter spp.; [5]): 64 µg/mL (≈ 487 µM)
MBC (Klebsiella pneumoniae; [4]): 64 µg/mL (≈ 487 µM)
MIC (Klebsiella pneumoniae; [4]): 64 µg/mL (≈ 487 µM)
MBC (Pseudomonas aeruginosa; [4]): 128 µg/mL (≈ 973 µM)
MIC (Pseudomonas aeruginosa; [4]): 128 µg/mL (≈ 973 µM)
MBC (Staphylococcus aureus; [4]): > 128 µg/mL
MIC (Staphylococcus aureus; [4]): 128 µg/mL (≈ 973 µM)
MBC (E. coli ATCC 25922): 128 µg/mL (≈ 973 µM)
MIC (E. coli ATCC 25922): 128 µg/mL (≈ 973 µM)
MBC (P. aeruginosa ATCC 27853): 128 µg/mL (≈ 973 µM)
MIC (P. aeruginosa ATCC 27853): 128 µg/mL (≈ 973 µM)
MBC (S. aureus ATCC 25923): > 128 µg/mL
MIC (S. aureus ATCC 25923): 128 µg/mL (≈ 973 µM)

O=C1OC2C(=C1Cl)N2Cc1ccccc1 (stereo not drawn) [Example 4, 4-chloro-6-benzyl-2-oxa-6-azabicyclo[3.1.0]hex-4-en-3-one]
MBC (Acinetobacter spp.; Acinetobacter, patient isolates, isolate code not given (one value per isolate), read-out: MBC): 8 µg/mL (≈ 36.1 µM)
MIC (Acinetobacter spp.; [3]): 4 µg/mL (≈ 18 µM)
MBC (Acinetobacter spp.; [4]): 16 µg/mL (≈ 72.2 µM)
MIC (Acinetobacter spp.; [4]): 8 µg/mL (≈ 36.1 µM)
MBC (Escherichia coli; [4]): 16 µg/mL (≈ 72.2 µM)
MIC (Escherichia coli; [4]): 16 µg/mL (≈ 72.2 µM)
MBC (Enterobacter spp.; [5]): 16 µg/mL (≈ 72.2 µM)
MIC (Enterobacter spp.; [5]): 8 µg/mL (≈ 36.1 µM)
MBC (Enterobacter spp.; [4]): 32 µg/mL (≈ 144 µM)
MIC (Enterobacter spp.; [4]): 16 µg/mL (≈ 72.2 µM)
MBC (E. coli ATCC 25922): 16 µg/mL (≈ 72.2 µM)
MIC (E. coli ATCC 25922): 8 µg/mL (≈ 36.1 µM)
MBC (P. aeruginosa ATCC 27853): 32 µg/mL (≈ 144 µM)
MIC (P. aeruginosa ATCC 27853): 16 µg/mL (≈ 72.2 µM)
MBC (S. aureus ATCC 25923): 8 µg/mL (≈ 36.1 µM)
MIC (S. aureus ATCC 25923): 4 µg/mL (≈ 18 µM)
broad spectrum antibacterial activity ([1]; summary of Table 1): good broad spectrum activity
